# Patent publication US9593084B2 (Parion Sciences, Inc., priority 2012, dated 2017)
# Marks after values point to notes of the source that are not given here.
# What was measured:
# Sheep MCC = assay: Mucociliary clearance (MCC) studies in sheep; type: in vivo; settings: sheep, 0.24 nmol/kg (3 μM); for effect on MCC compared to vehicle: 4 h post-dose; for AUC (% Cl-h) / Initial Slope (4.0-4.5 h): aerosol, MCC at 4 h post-dose
# Description: The animal model that has been used most often to measure changes in MCC is the sheep model. The effect of compounds for enhancing mucociliary clearance (MCC) can be measured using an in vivo model described by Sabater et al., Journal of Applied Physiology, 1999, pp. 2191-2196, incorporated herein by reference.
# In these studies, adult sheep were restrained and nasally intubated with an endotracheal tube. Aerosolized test articles were administered over 10-15 minutes to sheep. Radiolabeled ^99mTc-sulfur colloid (TSC, 3.1 mg/mL; containing approximately 20 mCi) was then administered at a specified time four or eight hours after test article. The radiolabeled aerosol was administered through the endotracheal tube for about 5 minutes. The sheep were then extubated, and total radioactive counts in the lung were measured every 5 minutes for a 1-hour observation period. The rate of radiolabel clearance from the lung is representative of the MCC rate in the animal. The advantage of this system is that it closely simulates the human lung environment. The model also allows for the collection of simultaneous PK/PD information through plasma and urine sampling over the test period. There are also several techniques to measure the drug concentrations on the airway surface during the MCC measurements. These include the collection of exhaled breath condensates or a filter paper method to obtain ASL via bronchoscopy.
# The ovine model described above was used to evaluate the in vivo effects (efficacy/durability) of aerosol-delivered test agent on MCC. Treatments consisting of either 4 mL of test agent or test agent in combination with HS were tested. To determine if combining HS with test agent enhanced MCC, HS was administered immediately following test agent administration. Test solutions were aerosolized using a Raindrop nebulizer at a flowrate of eight liters per minute and connected to a dosimetry system consisting of a solenoid valve and a source of compressed air (20 psi). The deposited dose of drug in sheep lungs after an aerosol administration using the Raindrop nebulizer is estimated to be 8-15% of the dose. Using a Raindrop nebulizer, radiolabeled TSC was administered over approximately 3 minutes either 4 or 8 hours after drug treatment to evaluate efficacy/durability. Radioactive counts were measured in a central region in the right lung at 5 min intervals for one hour with a gamma camera. Three methods of analysis were utilized, 1) initial rate of clearance (slope) over the first 30 min fitted using linear regression 2) area under the curve for % clearance over time over one hour, and 3) the maximum clearance obtained in one hour.
# [1] = molecular target: T1, epithelial sodium channel (Canis lupus familiaris, UniProt A0A8I3MKE6+A0A8I3Q679+Q95165); assay: Inhibition of short-circuit current (ISC) in airway epithelial monolayers in Ussing chambers; type: cell-based, canine; settings: canine bronchial epithelial cells, short-circuit current; read-out: Potency of Sodium Channel Blockade IC50
# T1 construct: endogenous in cells; host or cells: primary canine bronchial epithelial cells cultured at air-liquid interface
# T1 sequence (A0A8I3Q679 1-649): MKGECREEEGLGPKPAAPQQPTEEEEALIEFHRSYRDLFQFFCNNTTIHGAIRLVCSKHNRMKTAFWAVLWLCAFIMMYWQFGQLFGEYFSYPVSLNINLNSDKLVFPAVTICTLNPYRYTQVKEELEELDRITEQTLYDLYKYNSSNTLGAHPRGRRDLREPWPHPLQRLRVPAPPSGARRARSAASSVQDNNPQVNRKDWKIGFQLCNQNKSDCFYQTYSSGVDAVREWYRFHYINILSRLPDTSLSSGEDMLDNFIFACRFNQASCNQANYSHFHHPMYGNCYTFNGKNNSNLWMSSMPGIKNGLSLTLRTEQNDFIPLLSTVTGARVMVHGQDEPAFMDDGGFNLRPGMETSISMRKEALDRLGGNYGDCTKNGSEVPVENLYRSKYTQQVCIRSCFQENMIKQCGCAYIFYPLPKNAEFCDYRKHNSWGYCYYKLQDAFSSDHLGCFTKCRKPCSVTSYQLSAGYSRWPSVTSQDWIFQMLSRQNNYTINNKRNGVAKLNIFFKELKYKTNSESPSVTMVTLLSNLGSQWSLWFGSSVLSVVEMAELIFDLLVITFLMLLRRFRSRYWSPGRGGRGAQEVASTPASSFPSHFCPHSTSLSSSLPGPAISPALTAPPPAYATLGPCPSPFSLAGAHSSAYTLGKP
# T1 sequence (Q95165 1-641): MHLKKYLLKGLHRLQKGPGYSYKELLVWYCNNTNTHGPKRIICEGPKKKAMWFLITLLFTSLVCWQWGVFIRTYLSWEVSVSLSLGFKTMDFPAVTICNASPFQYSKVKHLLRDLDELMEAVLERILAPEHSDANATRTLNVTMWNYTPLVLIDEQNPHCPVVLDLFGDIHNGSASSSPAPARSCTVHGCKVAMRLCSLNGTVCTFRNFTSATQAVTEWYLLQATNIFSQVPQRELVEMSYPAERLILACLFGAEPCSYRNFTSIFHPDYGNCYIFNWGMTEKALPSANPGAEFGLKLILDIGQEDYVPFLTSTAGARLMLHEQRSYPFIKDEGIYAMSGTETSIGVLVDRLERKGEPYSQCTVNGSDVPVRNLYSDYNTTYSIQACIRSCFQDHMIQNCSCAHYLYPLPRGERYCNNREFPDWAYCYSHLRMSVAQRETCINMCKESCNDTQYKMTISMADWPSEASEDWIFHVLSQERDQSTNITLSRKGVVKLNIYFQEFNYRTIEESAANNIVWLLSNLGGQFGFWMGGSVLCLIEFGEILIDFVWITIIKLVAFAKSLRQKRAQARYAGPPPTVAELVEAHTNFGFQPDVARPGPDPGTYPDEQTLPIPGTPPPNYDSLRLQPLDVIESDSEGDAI
# T1 sequence (A0A8I3MKE6 1-646): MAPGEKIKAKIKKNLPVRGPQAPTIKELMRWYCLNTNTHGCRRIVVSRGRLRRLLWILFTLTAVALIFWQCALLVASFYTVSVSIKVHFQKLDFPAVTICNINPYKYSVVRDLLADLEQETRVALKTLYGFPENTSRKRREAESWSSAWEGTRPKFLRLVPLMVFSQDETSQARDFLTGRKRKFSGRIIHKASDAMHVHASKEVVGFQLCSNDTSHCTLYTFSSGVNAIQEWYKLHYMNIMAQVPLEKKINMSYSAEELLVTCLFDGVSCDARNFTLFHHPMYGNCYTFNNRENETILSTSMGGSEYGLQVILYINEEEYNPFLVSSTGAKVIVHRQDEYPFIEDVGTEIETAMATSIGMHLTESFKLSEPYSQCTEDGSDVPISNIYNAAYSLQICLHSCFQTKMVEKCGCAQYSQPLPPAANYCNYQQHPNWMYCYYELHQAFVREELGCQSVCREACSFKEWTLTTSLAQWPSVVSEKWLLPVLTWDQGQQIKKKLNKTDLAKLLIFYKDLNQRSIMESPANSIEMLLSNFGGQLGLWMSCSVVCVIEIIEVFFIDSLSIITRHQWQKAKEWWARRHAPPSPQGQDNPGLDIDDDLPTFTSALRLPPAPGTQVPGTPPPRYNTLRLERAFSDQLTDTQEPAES
# Description: One assay used to assess mechanism of action and/or potency of the compounds of the present invention involves the determination of lumenal drug inhibition of airway epithelial sodium currents measured under short circuit current (ISC) using airway epithelial monolayers mounted in Using chambers. Cells obtained from freshly excised human, dog, sheep or rodent airways are seeded onto porous 0.4 micron Snapwelff Inserts (CoStar), cultured at air-liquid interface (ALI) conditions in hormonally defined media, and assayed for sodium transport activity (ISC) while bathed in Krebs Bicarbonate Ringer (KBR) in Using chambers. All test drug additions are to the lumenal bath with half-log dose addition protocols (from 1×10^−11 M to 3×10^−5 M), and the cumulative change in ISC (inhibition) recorded. All drugs are prepared in dimethyl sulfoxide as stock solutions at a concentration of 1×10^−2 M and stored at −20° C. […] After the maximal concentration ([…]) is administered, the lumenal bath is exchanged three times with fresh drug-free KBR solution, and the resultant ISC measured after each wash for approximately 5 minutes in duration. Reversibility is defined as the percent return to the baseline value for sodium current after the third wash. All data from the voltage clamps are collected via a computer interface and analyzed off-line.
# Dose-effect relationships for all compounds are considered and analyzed by the Prism 3.0 program.
structure (smiles),measurement,setting,value
"N=C(NCCCCc1ccc(C[C@H](N)C(=O)Nc2ccc(CCCCCCN(C[C@H](O)[C@@H](O)[C@H](O)[C@H](O)CO)C[C@H](O)[C@@H](O)[C@H](O)[C@H](O)CO)cc2)c2ccccc12)NC(=O)c1nc(Cl)c(N)nc1N [Compound 48, 3,5-diamino-N—(N-(4-(4-((S)-2-amino-3-(4-(6-(bis((2S,3R,4R,5R)-2,3,4,5,6-pentahydroxyhexyl)amino)hexyl)phenylamino)-3-oxopropyl)naphthalen-1-yl)butyl)carbamimidoyl)-6-chloropyrazine-2-carboxamide]",effect on MCC compared to vehicle,Sheep MCC,Similarly Enhance MCC Compared to Vehicle
same,AUC (% Cl-h),Sheep MCC,15.4* (2) % Cl-h
same,Initial Slope (4.0-4.5 h),Sheep MCC,29.8* (2)
same,IC50,[1],0.047 µM
"N=C(NCCCCc1ccc2cc(C[C@H](N)C(=O)O)ccc2c1)NC(=O)c1nc(Cl)c(N)nc1N [Compound 80, (S)-2-amino-3-(6-(4-(3-(3,5-diamino-6-chloropyrazine-2-carbonyl)guanidino)butyl)naphthalen-2-yl)propanoic acid]",IC50,[1],0.0194 µM
"CN(C)CCCc1ccc(NC(=O)[C@@H](N)Cc2ccc(CCCCNC(=N)NC(=O)c3nc(Cl)c(N)nc3N)c3c2CCCC3)cc1 [Compound 135, (S)-3,5-diamino-N—(N-(4-(4-(2-amino-3-(4-(3-(dimethylamino)propyl)phenylamino)-3-oxopropyl)-5,6,7,8-tetrahydronaphthalen-1-yl)butyl)carbamimidoyl)-6-chloropyrazine-2-carboxamide]",IC50,[1],0.0052 µM
"N=C(NCCCCc1ccc2cc(C[C@H](N)C(=O)Nc3ccc(CCCN(C[C@H](O)[C@@H](O)[C@H](O)[C@H](O)CO)C[C@H](O)[C@@H](O)[C@H](O)[C@H](O)CO)cc3)ccc2c1)NC(=O)c1nc(Cl)c(N)nc1N [Compound 94, 3,5-diamino-N—(N-(4-(6-((S)-2-amino-3-(4-(3-(bis((2S,3R,4R,5R)-2,3,4,5,6-pentahydroxyhexyl)amino)propyl)phenylamino)-3-oxopropyl)naphthalen-2-yl)butyl)carbamimidoyl)-6-chloropyrazine-2-carboxamide]",IC50,[1],0.0212 µM
"CCCCCCN(CCCc1ccc(NC(=O)[C@@H](N)Cc2ccc(CCCCNC(=N)NC(=O)c3nc(Cl)c(N)nc3N)c3c2CCCC3)cc1)C[C@H](O)[C@@H](O)[C@H](O)[C@H](O)CO [Compound 123, 3,5-diamino-N—(N-(4-(4-((S)-2-amino-3-(4-(3-(hexyl((2S,3R,4R,5R)-2,3,4,5,6-pentahydroxyhexyl)amino)propyl)phenylamino)-3-oxopropyl)-5,6,7,8-tetrahydronaphthalen-1-yl)butyl)carbamimidoyl)-6-chloropyrazine-2-carboxamide]",effect on MCC compared to vehicle,Sheep MCC,Similarly Enhance MCC Compared to Vehicle
same,AUC (% Cl-h),Sheep MCC,14.4* (2) % Cl-h
same,Initial Slope (4.0-4.5 h),Sheep MCC,29.2* (2)
same,IC50,[1],0.0023 µM
"N=C(NCCCCc1ccc2cc(C[C@H](N)C(=O)Nc3ccc(CCCNC[C@H](O)[C@@H](O)[C@H](O)[C@H](O)CO)cc3)ccc2c1)NC(=O)c1nc(Cl)c(N)nc1N [Compound 99, 3,5-diamino-N—(N-(4-(6-((S)-2-amino-3-oxo-3-(4-(3-((2S,3R,4R,5R)-2,3,4,5,6-pentahydroxyhexylamino)propyl)phenylamino)propyl)naphthalen-2-yl)butyl)carbamimidoyl)-6-chloropyrazine-2-carboxamide]",IC50,[1],0.0076 µM
"CCCCCCN(CCCc1ccc(NC(=O)[C@@H](N)Cc2ccc(CCCCNC(=N)NC(=O)c3nc(Cl)c(N)nc3N)c3ccccc23)cc1)C[C@H](O)[C@@H](O)[C@H](O)[C@H](O)CO [Compound 28, 3,5-diamino-N—(N-(4-(4-((S)-2-amino-3-(4-(3-(hexyl((2S,3R,4R,5R)-2,3,4,5,6-pentahydroxyhexyl)amino)propyl)phenylamino)-3-oxopropyl)naphthalen-1-yl)butyl)carbamimidoyl)-6-chloropyrazine-2-carboxamide]",IC50,[1],0.0074 µM
"CN(C)CCCCCCc1ccc(NC(=O)[C@@H](N)Cc2ccc(CCCCNC(=N)NC(=O)c3nc(Cl)c(N)nc3N)c3ccccc23)cc1 [Compound 43, (S)-3,5-diamino-N—(N-(4-(4-(2-amino-3-(4-(6-(dimethylamino)hexyl)phenylamino)-3-oxopropyl)naphthalen-1-yl)butyl)carbamimidoyl)-6-chloropyrazine-2-carboxamide]",IC50,[1],0.0501 µM
